Consider five compounds from ChEMBL document CHEMBL3784954, “In vitro and in silico PTP-1B inhibition and in vivo antidiabetic activity of semisynthetic moronic acid derivatives” (Bioorg Med Chem Lett, 2016).

Usually inhibition stands for how much of the control response was suppressed. The IC50 is the concentration that inhibits the measured activity by half. One may read the Ki as the equilibrium dissociation constant of an inhibitor or competing ligand from its target.

Data set [1] has as its target T1, Tyrosine-protein phosphatase non-receptor type 1 (Homo sapiens) (UniProt P18031).
T1 sequence (whole entry): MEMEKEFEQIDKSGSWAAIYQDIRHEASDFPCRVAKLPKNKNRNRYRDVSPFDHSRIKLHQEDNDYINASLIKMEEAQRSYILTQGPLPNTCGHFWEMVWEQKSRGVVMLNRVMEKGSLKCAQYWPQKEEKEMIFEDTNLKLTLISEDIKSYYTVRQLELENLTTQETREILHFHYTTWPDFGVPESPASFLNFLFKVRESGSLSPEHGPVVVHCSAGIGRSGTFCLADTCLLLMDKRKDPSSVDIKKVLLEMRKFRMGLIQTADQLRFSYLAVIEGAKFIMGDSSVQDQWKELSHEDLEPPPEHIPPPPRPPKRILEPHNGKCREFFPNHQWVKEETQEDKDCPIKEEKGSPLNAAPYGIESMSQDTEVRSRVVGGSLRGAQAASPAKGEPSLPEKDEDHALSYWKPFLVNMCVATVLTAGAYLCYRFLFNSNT
Description: Inhibition of recombinant human PTP-1B expressed in Escherichia coli TB1 at 50 uM using p-nitrophenyl phosphate as substrate.

Data set [2] in a line: Solubility of compound in DMSO. In kind it is physicochemical.
Data set [3] has as its target T1, Tyrosine-protein phosphatase non-receptor type 1 (Homo sapiens). Description: Partial reversible inhibition of recombinant human PTP-1B expressed in Escherichia coli TB1 at 10 times IC50 using p-nitrophenyl phosphate as substrate preincubated for 90 mins followed by 400 fold dilution.
For data set [4], the target named is T2, Tyrosine-protein phosphatase non-receptor type 1 (Homo sapiens, UniProt P18031).
T2 sequence (P18031 whole entry): T1 sequence (whole entry)
Description: Inhibition of recombinant human PTP-1B expressed in Escherichia coli TB1 using p-nitrophenyl phosphate as substrate.

For data set [5], the species on record is Homo sapiens. Description: Selectivity ratio of IC50 for recombinant human LMW-PTP isoform 2 expressed in Escherichia coli TB1 to IC50 for recombinant human PTP-1B expressed in Escherichia coli TB1.
In data set [6] the target is T3, Tyrosine-protein phosphatase non-receptor type 2 (Homo sapiens, UniProt P17706).
T3 sequence (P17706 whole entry): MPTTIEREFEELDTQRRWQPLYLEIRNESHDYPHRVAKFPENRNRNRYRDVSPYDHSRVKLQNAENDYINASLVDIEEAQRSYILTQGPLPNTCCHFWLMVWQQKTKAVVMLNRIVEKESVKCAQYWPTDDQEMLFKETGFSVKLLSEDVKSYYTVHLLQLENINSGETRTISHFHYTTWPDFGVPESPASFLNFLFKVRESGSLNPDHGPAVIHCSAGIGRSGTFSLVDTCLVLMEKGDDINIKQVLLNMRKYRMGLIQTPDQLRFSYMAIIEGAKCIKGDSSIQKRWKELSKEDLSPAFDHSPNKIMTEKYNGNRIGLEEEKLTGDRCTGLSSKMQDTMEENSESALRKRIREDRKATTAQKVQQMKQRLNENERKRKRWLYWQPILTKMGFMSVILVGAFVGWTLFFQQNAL
Description: Inhibition of recombinant human TC-PTP expressed in Escherichia coli TB1.

The target in data set [7] is T4, Low molecular weight phosphotyrosine protein phosphatase (Homo sapiens, UniProt P24666).
T4 sequence (P24666 whole entry): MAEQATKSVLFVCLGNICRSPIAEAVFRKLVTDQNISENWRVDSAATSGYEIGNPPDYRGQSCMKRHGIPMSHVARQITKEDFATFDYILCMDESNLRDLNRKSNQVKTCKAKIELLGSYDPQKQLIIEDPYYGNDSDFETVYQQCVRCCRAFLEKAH
Description: Inhibition of recombinant human LMW-PTP isoform 2 expressed in Escherichia coli TB1.

Data set [8] deals with T4, Low molecular weight phosphotyrosine protein phosphatase. Description: Inhibition of recombinant human LMW-PTP isoform 1 expressed in Escherichia coli TB1.
The species entered for data set [9] is Homo sapiens. Description: Selectivity ratio of IC50 for recombinant human LMW-PTP isoform 1expressed in Escherichia coli TB1 to IC50 for recombinant human PTP-1B expressed in Escherichia coli TB1.
Data set [10] deals with T2, Tyrosine-protein phosphatase non-receptor type 1. Description: Competitive inhibition of recombinant human PTP-1B expressed in Escherichia coli TB1 using p-nitrophenyl phosphate as substrate by Lineweaver-Burk plot analysis.
Data set [11] concerns the target T1, Tyrosine-protein phosphatase non-receptor type 1 (Homo sapiens). Description: Reversible inhibition of recombinant human PTP-1B expressed in Escherichia coli TB1 at 10 times IC50 using p-nitrophenyl phosphate as substrate preincubated for 90 mins followed by 400 fold dilution.
Data set [12] has as its system Rattus norvegicus. Description: Antidiabetic activity in non insulin dependent streptozotocin/nicotinamide-induced diabetic Wistar rat model assessed as decrease in blood glucose levels at 50 mg/kg, ig administered as single dose measured after 7 hrs by glucometer. Format: functional. Also noted: scale not given: the % may be the effect or the level left.
The test system of data set [13] is Rattus norvegicus. Description: Antidiabetic activity in non insulin dependent streptozotocin/nicotinamide-induced diabetic Wistar rat model assessed as decrease in blood glucose levels at 50 mg/kg, ig administered as single dose measured after 3 hrs by glucometer. In kind it is functional, organism-based.

The source made the active and inactive calls. The calls are words filed in the database; no cut-off is given here.

With `CC1(C)CC[C@]2(O)CC[C@]3(C)[C@H](CC[C@@H]4[C@@]5(C)CCC(=O)OC(C)(C)[C@@H]5CC[C@]43C)C23OC13` (stereo partly specified), in [1], the inhibition result was “Active”.

For the compound `CC1(C)C=C2[C@H]3CC[C@@H]4[C@@]5(C)CCC(=O)C(C)(C)[C@@H]5CC[C@@]4(C)[C@]3(C)CC[C@@]2(C(=O)NC2CCCCC2)CC1`, the inhibition entry in data set [1] is “Active”.

Turning to `CCOC(=O)[C@]12CCC(C)(C)C=C1[C@H]1CC[C@@H]3[C@@]4(C)CCC(=O)C(C)(C)[C@@H]4CC[C@@]3(C)[C@]1(C)CC2`, the inhibition entry in data set [1] was “Active”.

As for `CC1(C)C=C2[C@H]3CC[C@@H]4[C@@]5(C)CCC6(OCCO6)C(C)(C)[C@@H]5CC[C@@]4(C)[C@]3(C)CC[C@@]2(CO)CC1`, the solubility entry in [2] was “soluble”. In data set [1], the inhibition was determined as 100%. In addition, the inhibition result in data set [3] is “Active”. The IC50 in [4] is 7.5 µM; in data set [6], over 100 µM; in data set [7] it was 29.3 µM; in data set [8], 16.1 µM. The results for the Ratio IC50 in data set [5] and in data set [9] were 4 and 2, respectively.

Regarding `COC(=O)[C@]12CCC(C)(C)C=C1[C@H]1CC[C@@H]3[C@@]4(C)CCC(=O)C(C)(C)[C@@H]4CC[C@@]3(C)[C@]1(C)CC2`, the Ki in data set [10] stood at 3.1 µM. In addition, the inhibition entry in [11] was “Active”. For the same compound, the inhibition in [1] came out at 100%. The IC50 in data set [4] is 10.8 µM; in data set [6], over 100 µM; in data set [7], 62.5 µM; in data set [8] it was 33.7 µM. In [12], the Activity amounted to 40%. Moreover, the outcome in data set [13] was Active.
